Measurements taken from patent US20250129102A1, “CRYSTAL FORM OF PYRIMIDINE HETEROCYCLIC COMPOUND AND PREPARATION METHOD THEREFOR” (D3 Bio (Wuxi) Co., Ltd., priority 2021, published 2025).

Legend:
[1] = Solid stability assay of crystal form A (XRPD); format: physicochemical
Text: The sample was spread into a thin layer. For the samples placed under conditions of high temperature and high humidity, the vial mouth was sealed with aluminum foil, and some small holes were punched in the aluminum foil to ensure that the samples were fully in contact with the ambient air. For the samples placed under condition of strong light, the vial mouth was sealed with aluminum foil, and some small holes were punched in the aluminum foil. Samples placed under different conditions were sampled and tested (XRPD) on day 5 and day 10, respectively. The assay results were compared with the initial assay results on day 0.
Each medicinal low-density polyethylene bag was tied tightly with a tie, and then was placed into a single-layer aluminum foil bag. The single-layer aluminum foil bag was then heat-sealed. Finally, the samples were stored in plastic buckets and stored in a chamber with constant temperature and humidity. The packaging used in the stability assay simulated the material storage packaging. The material was divided into 1.5 g/package as stability samples under red light. Each sample was packaged in the same way and labeled with a stability sample label. The samples placed under different conditions were sampled and tested (XRPD) in the 3rd and 6th months. The assay results were compared with the initial assay results on day 0.

[2] = Pharmacokinetics by oral administration in beagle dogs; format: in vivo; conditions: male, dog, plasma, 24.5 mg/kg, 0.5% methylcellulose
Method: 680.397 mg of assay compound powder was accurately weighed, and 50 mL of 0.500 methylcellulose (400 viscosity) aqueous solution was added. The mixture was stirred for 10 minutes, and sonicated for 10 minutes. 50 mL of 0.5% o methylcellulose (400 viscosity) aqueous solution was added, and homogenized for 10 minutes using a homogenizer. 11 mL of 0.5% o methylcellulose (400 viscosity) aqueous solution was added. The mixture was sonicated for 5 minutes and stirred for 10 minutes. 358 μL of 0.5% o methylcellulose (400 viscosity) aqueous solution was added and stirred for 2 minutes. Male beagle dogs aged over six months were selected, and administered candidate compound solution orally. Whole blood was collected for a certain period of time, and prepared to obtain plasma. Drug concentration was analyzed by LC-MS/MS method, and pharmacokinetic parameters were calculated by Phoenix WinNonlin software (Pharsight, USA). The results of the assay are shown in Table 14: […]

[3] = Pharmacokinetics of crystal form A by oral administration in SD rats; format: in vivo; conditions: male, rat, plasma, 92.3 mg/kg, suspension in 0.5% methylcellulose
Method: Male SD rats aged 7 to 10 weeks were selected, and administered candidate compound solution orally. Whole blood was collected for a certain period of time, and prepared to obtain plasma. Drug concentration was analyzed by LC-MS/MS method, and pharmacokinetic parameters were calculated by Phoenix WinNonlin software (Pharsight, USA).

[4] = read-out: Area under the plasma concentration-time curve, AUC0-last
[5] = read-out: Peak concentration, Cmax

C=C(F)C(=O)N1CCN(c2nc(OC[C@@]34CCCN3C[C@H](F)C4)nc3c2CO[C@H](c2c(F)c(N)cc(C)c2C(F)(F)F)C3)C[C@@H]1CC#N
Crystal form ([1]; 25 ± 2° C./60 ± 5% relative humidity, 3 months): Crystal form A | Crystal form ([1]; 25 ± 2° C./60 ± 5% relative humidity, 6 months): Crystal form A | Crystal form ([1]; 40 ± 2° C./75 ± 5% relative humidity, 3 months): Crystal form A | Crystal form ([1]; 40 ± 2° C./75 ± 5% relative humidity, 6 months): Crystal form A | Crystal form ([1]; High humidity (25° C./relative humidity 92.5%, unsealed), 5 days): Crystal form A | Crystal form ([1]; High humidity (25° C./relative humidity 92.5%, unsealed), 10 days): Crystal form A | Crystal form ([1]; High temperature (60° C., unsealed), 5 days): Crystal form A | Crystal form ([1]; High temperature (60° C., unsealed), 10 days): Crystal form A | Crystal form ([1]; Light control, 5 days): Crystal form A | Crystal form ([1]; Light control, 10 days): Crystal form A | solid stability ([1]; high temperature, high humidity, strong light, long-term and accelerated experiments): good stability | Crystal form ([1]; initial, 0 day (XRPD)): Crystal form A | AUC(0-t) [2, 4]: 16.7 µM·h | Cmax [2, 5]: 2440 nM | Tmax ([2]; read-out: Time-to-peak, Tmax): 2.5 h | AUC(0-t) [3, 4]: 11.5 µM·h | Cmax [3, 5]: 1400 nM | Tmax ([3]; read-out: Time-to-peak, Tmax): 5.33 h
